Patent US20240409534A1, “CRYSTAL FORM OF METHYLPYRAZOLE-SUBSTITUTED PYRIDOIMIDAZOLE COMPOUND AND PREPARATION METHOD THEREFOR” (priority 2021, published 2024)
pIC50: −log10 of the molar value.

Legend:
[1] = Stability test (high temperature, high humidity, light, accelerated, long-term); assay type: physicochemical
Excerpt: For tests under high temperature, high humidity and light conditions, samples were put into an open clean weighing bottle, spread into a thin layer of 5 mm or less, and 3 samples (1.1 g/sample) were weighed in parallel at each condition time point. The prepared samples were placed under each condition, and sampled for analysis at each time point.
For accelerated stability and long-term stability tests, samples were packed into a double-layer pharmaceutical low-density polyethylene bag. Each layer of the pharmaceutical low-density polyethylene bag was sealed with buckles, and then the double-layer low-density polyethylene bag was heat-sealed in an aluminum foil bag. 6 samples (1.1 g/sample) were weighed in parallel at each condition time point. The prepared samples were placed under each condition, and sampled for analysis at each time point.

[2] = test system: Renca subcutaneous xenograft tumor; assay: In vivo antitumor activity, Renca subcutaneous xenograft tumor model; set-up: species or system Balb/c mice
Procedure: Female Balb/c mice (6 to 8 weeks old)
Mouse renal carcinoma Renca cells (ATCC-CRL-2947) were adherent cultured in vitro under the conditions of RPMI 1640 Medium with 10% fetal bovine serum, 0.1 mM non-essential amino acids, 1 mM sodium pyruvate, 2 mM glutamine, 100 U/mL penicillin and 100 µg/mL streptomycin, and cultured in a 37° C., 5% CO2 incubator. Routine passage was performed twice a week. When the cell saturation density was 80% to 90% and the number of cells reached the required level, the cells were collected, counted, and inoculated.
0.1 mL (1×10^5) Renca cells were subcutaneously inoculated on the dorsal side of the right upper limb of each mouse, and grouping and administration were initiated when the average tumor volume reached approximately 50 to 80 mm^3.
Tumor diameters were measured twice a week with vernier calipers. […]
The antitumor efficacy of compounds was evaluated by TGI (%) or relative tumor proliferation rate T/C (%). […] Relative tumor volume (RTV) was calculated according to the results of tumor measurement, and the formula was RTV=Vt/V0, where V0 was the tumor volume measured at the time of grouping and administration (i.e. D0), Vt was the tumor volume of the corresponding mouse in one measurement, and the TRTV and CRTV data were collected on the same day. […]

[3] = Hygroscopicity study by dynamic vapor sorption (DVS); assay type: physicochemical; details: 25° C. and 80% RH
Procedure: Instrument model: SMS Intrinsic Dynamic Vapor Sorption Analyzer
Test conditions: Taking a sample (10 to 30 mg) and placing in a DVS sample dish for testing.
Detailed DVS parameters are as follows: • Temperature: 25° C. • Equilibration: dm/dt=0.002%/min (minimum: 10 min, maximum: 180 min) RH range: 0% RH to 95% RH to 0% RH • RH gradient: 10% (90% RH to 0% RH to 90% RH) • 5% (95% RH to 90% RH and 90% RH to 95% RH)

Ba/F3-TEL-FLT4 (VEGFR3) = assay: In vitro proliferation of BaF3 cell line, Ba/F3-TEL-FLT4; assay type: cell-based
Procedure: The mother solution was prepared into a total of 9 concentration gradients (10.0000 mM, 2.5000 mM, 0.6250 mM, 0.1563 mM, 0.0391 mM, 0.0098 mM, 0.0024 mM, 0.0006 mM and 0.0002 mM) in a 4-fold dilution and stored in a 96-well plate (Beaver, Suzhou), while the same volume of DMSO solvent was used as a negative control. • 1. Cell suspension in logarithmic growth phase was taken and inoculated in a white 96-well cell culture plate (Corning 3917, NY, USA) with a volume of 95 μL per well (2000 cells/well). • 2. Diluted medium-compound mixture was added in a volume of 5 μL per well, respectively, and the final concentration of DMSO in Ba/F3-TEL-FLT1 (VEGFR1), Ba/F3-TEL-FLT4 (VEGFR3) and Ba/F3-TEL-VEGFR2 cells was 0.1%.
• 3. The plate was incubated in a 37° C., 5% CO2 incubator for 72 h. • 4. The proliferation inhibitory activity and data analysis of the compound by CellTiter-Glo method were the same as in Experimental embodiment 1.

[4] = Accelerated stability test (40° C./relative humidity: 75%), Day 0
[5] = Accelerated stability test (40° C./relative humidity: 75%), Month 1
[6] = Accelerated stability test (40° C./relative humidity: 75%), Month 2
[7] = Accelerated stability test (40° C./relative humidity: 75%), Month 3
[8] = Accelerated stability test (40° C./relative humidity: 75%), Month 6
[9] = High humidity (25° C./relative humidity: 92.5%, open), Day 5
[10] = High humidity (25° C./relative humidity: 92.5%, open), Day 10
[11] = High humidity (25° C./relative humidity: 92.5%, open), Day 30
[12] = High temperature (60° C., open), Day 5
[13] = High temperature (60° C., open), Day 10
[14] = High temperature (60° C., open), Day 30
[15] = Light (Total illumination: 1.2 × 10^6 Lux · hr/NUV: 200 w · hr/m^2, open), Day 5
[16] = Light (Total illumination: 1.2 × 10^6 Lux · hr/NUV: 200 w · hr/m^2, open), Day 10
[17] = Long-term stability test (25° C./relative humidity: 60%), Day 0
[18] = Long-term stability test (25° C./relative humidity: 60%), Month 3
[19] = Long-term stability test (25° C./relative humidity: 60%), Month 6
[20] = Long-term stability test (25° C./relative humidity: 60%), Month 9

SMILES: CS(=O)(=O)O.Cn1cc(-c2ccn3c(-c4cc(NS(C)(=O)=O)nc(-c5ccc(F)cc5F)c4)cnc3c2)cn1
- Content [1, 4]: 97.9%
- Crystal form (XRPD) [1, 4]: Crystal form A
- Total impurities [1, 4]: 1.2%
- Content [1, 5]: 98.0%
- Crystal form (XRPD) [1, 5]: Crystal form A
- Total impurities [1, 5]: 1.3%
- Content [1, 6]: 97.6%
- Crystal form (XRPD) [1, 6]: Crystal form A
- Total impurities [1, 6]: 1.2%
- Content [1, 7]: 98.0%
- Crystal form (XRPD) [1, 7]: Crystal form A
- Total impurities [1, 7]: 1.2%
- Content [1, 8]: 98.5%
- Crystal form (XRPD) [1, 8]: Crystal form A
- Total impurities [1, 8]: 1.2%
- Content ([1]; Day 0): 97.9%
- Crystal form (XRPD) ([1]; Day 0): Crystal form A
- Total impurities ([1]; Day 0): 1.2%
- Content [1, 9]: 96.8%
- Crystal form (XRPD) [1, 9]: Crystal form A
- Total impurities [1, 9]: 1.2%
- Content [1, 10]: 98.8%
- Crystal form (XRPD) [1, 10]: Crystal form A
- Total impurities [1, 10]: 1.2%
- Content [1, 11]: 98.0%
- Crystal form (XRPD) [1, 11]: Crystal form A
- Total impurities [1, 11]: 1.3%
- Content [1, 12]: 97.0%
- Crystal form (XRPD) [1, 12]: Crystal form A
- Total impurities [1, 12]: 1.3%
- Content [1, 13]: 98.5%
- Crystal form (XRPD) [1, 13]: Crystal form A
- Total impurities [1, 13]: 1.1%
- Content [1, 14]: 98.2%
- Crystal form (XRPD) [1, 14]: Crystal form A
- Total impurities [1, 14]: 1.2%
- Content [1, 15]: 98.4%
- Crystal form (XRPD) [1, 15]: Crystal form A
- Total impurities [1, 15]: 1.2%
- Content [1, 16]: 97.7%
- Crystal form (XRPD) [1, 16]: Crystal form A
- Total impurities [1, 16]: 1.1%
- Content [1, 17]: 97.9%
- Crystal form (XRPD) [1, 17]: Crystal form A
- Total impurities [1, 17]: 1.2%
- Content [1, 18]: 98.3%
- Crystal form (XRPD) [1, 18]: Crystal form A
- Total impurities [1, 18]: 1.2%
- Content [1, 19]: 98.6%
- Crystal form (XRPD) [1, 19]: Crystal form A
- Total impurities [1, 19]: 1.2%
- Content [1, 20]: 97.6%
- Crystal form (XRPD) [1, 20]: Crystal form A
- Total impurities [1, 20]: 1.2%
- effect on tumor growth versus solvent control group ([2]; Renca model, 100 mg/kg, p=0.031): significant inhibitory effect on tumor growth
- TGI % (last administration on day 19) ([2]; Renca xenograft tumor model, 100 mg/kg QD, female Balb/c mice): 72%
- hygroscopic weight gain ΔW [3]: 1.708%
- Maximum inhibition (Ba/F3-TEL-FLT4 (VEGFR3); 72 h): 100%
- Minimum inhibition (Ba/F3-TEL-FLT4 (VEGFR3); 72 h): −2.54%
- pIC50 (Ba/F3-TEL-FLT4 (VEGFR3); Mus musculus, BaF3, 72 h, read-out: Relative IC50): 6.40
